Test results as given in patent US20060069132A1, “Azolecarboxamide herbicides” (priority 2004, published 2006).
Where two headings read alike, the source gives them in different places.

How the values were obtained:
[1] = system: corn; assay: Test B pre-/postemergence herbicide test; type: in vivo, Zea mays; conditions: Zea mays; for plant injury at 125 g/ha: 125 g ai/ha
How it was run: (§1)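 Response was scored visually 13 to 15 days after treatment against untreated greenhouse controls, 0 meaning no effect and 100 complete control. Formulations (solvent mixture plus surfactant) went onto soil after planting, onto foliage of 1- to 4-leaf plants, and onto 2-leaf plants in a flooded paddy set including rice and barnyardgrass.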

[2] = system: wheat; assay: Test B postemergence herbicide test; type: in vivo, Triticum aestivum; conditions: Triticum aestivum, post-emergence, 336 h, postemergence, visual rating, scale 0 (no effect) to 100 (complete control), read-out: Wheat plant response rating
How it was run: (§2)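 Formulated test chemicals went onto postemergence plants measuring 2 to 18 cm, at one to four leaves. For the paddy assay, species had reached two leaves. Scoring took place 13–15 days later by eye, relative to untreated plants, using 0 for no effect up to 100 for full control.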

[3] = system: rice; assay: Test B flooded paddy test; type: in vivo, Oryza sativa; conditions: Oryza sativa, 336 h, 1000 g ai/ha, visual rating, scale 0 to 100 (0 no effect, 100 complete control), 13 to 15 days, read-out: Rice plant response rating
How it was run: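 Postemergence plants were sprayed with formulated test chemicals at 2 to 18 cm height (1- to 4-leaf stage); paddy species were grown to the 2-leaf stage. After 13 to 15 days in a greenhouse, injury was rated visually against untreated controls on a 0–100 scale (0 = no effect, 100 = complete control).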

[4] = system: cocklebur; assay: Test B pre-/postemergence herbicide test; type: in vivo, Xanthium strumarium; conditions: Xanthium strumarium; for pest or weed control at 125 g/ha: 125 g ai/ha; for pest or weed control at 500 g/ha: 500 g ai/ha
How it was run: (§3)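 Herbicidal effect was judged by eye on a 0–100 scale after plants stood 13 to 15 days in the greenhouse following pre- or postemergence treatment with surfactant-containing formulations.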

[5] = system: blackgrass; assay: Test B postemergence herbicide test; type: in vivo, Alopecurus myosuroides; conditions: Alopecurus myosuroides, post-emergence, 336 h, postemergence, visual rating, scale 0 (no effect) to 100 (complete control), read-out: Blackgrass plant response rating
How it was run: (§4)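 Treated at 2-leaf (paddy) or 1–4-leaf, 2–18 cm (postemergence); greenhouse 13–15 d; visual score vs control, 0 none to 100 complete control; dash = not tested.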

[6] = system: barnyardgrass; assay: Test B pre-/postemergence herbicide test; type: in vivo, Echinochloa crus-galli; conditions: Echinochloa crus-galli; for pest or weed control at 125 g/ha: 125 g ai/ha; for pest or weed control at 500 g/ha: 500 g ai/ha
How it was run: as §3

[7] = system: pigweed; assay: Test B pre-/postemergence herbicide test; type: in vivo, Amaranthus retroflexus; conditions: Amaranthus retroflexus, 336 h; for pest or weed control at 125 g/ha: 125 g ai/ha; for pest or weed control at 500 g/ha: 500 g ai/ha
How it was run: as §1

[8] = system: giant foxtail; assay: Test B pre-/postemergence herbicide test; type: in vivo, Setaria faberi; conditions: Setaria faberi, 336 h; for pest or weed control at 125 g/ha: 125 g ai/ha; for pest or weed control at 500 g/ha: 500 g ai/ha
How it was run: as §1

[9] = system: wild oat; assay: Test B postemergence herbicide test; type: in vivo, Avena fatua; conditions: Avena fatua, post-emergence, 336 h, postemergence, visual rating, scale 0 (no effect) to 100 (complete control), read-out: Oat, Wild plant response rating
How it was run: as §2

[10] = system: Surinam grass; assay: Test B pre-/postemergence herbicide test; type: in vivo, Urochloa decumbens; conditions: Urochloa decumbens; for pest or weed control at 125 g/ha: 125 g ai/ha; for pest or weed control at 500 g/ha: 500 g ai/ha
How it was run: as §1

[11] = system: velvetleaf; assay: Test B pre-/postemergence herbicide test; type: in vivo, Abutilon theophrasti; conditions: Abutilon theophrasti, 336 h; for pest or weed control at 125 g/ha: 125 g ai/ha; for pest or weed control at 500 g/ha: 500 g ai/ha
How it was run: as §1

[12] = system: large crabgrass; assay: Test B pre-/postemergence herbicide test; type: in vivo, Digitaria sanguinalis; conditions: Digitaria sanguinalis; for pest or weed control at 125 g/ha: 125 g ai/ha; for pest or weed control at 500 g/ha: 500 g ai/ha
How it was run: as §1

[13] = system: ducksalad; assay: Test B flooded paddy test; type: in vivo, Heteranthera limosa; conditions: Heteranthera limosa, 336 h, 1000 g ai/ha, visual rating, scale 0 to 100 (0 no effect, 100 complete control), 13 to 15 days, read-out: Ducksalad plant response rating
How it was run: as §4

[14] = system: small flower umbrella sedge; assay: Test B flooded paddy test; type: in vivo, Cyperus difformis; conditions: Cyperus difformis, 336 h, 1000 g ai/ha, visual rating, scale 0 to 100 (0 no effect, 100 complete control), 13 to 15 days, read-out: Sedge, Umbrella plant response rating
How it was run: as §4

[15] = system: morningglory; assay: Test B pre-/postemergence herbicide test; type: in vivo, Ipomoea coccinea; conditions: Ipomoea, 336 h; for pest or weed control at 125 g/ha: 125 g ai/ha; for pest or weed control at 500 g/ha: 500 g ai/ha
How it was run: as §3

[16] = post-emergence, postemergence, visual rating, scale 0 (no effect) to 100 (complete control), read-out: Cocklebur plant response rating
[17] = post-emergence, postemergence, visual rating, scale 0 (no effect) to 100 (complete control), read-out: Barnyardgrass plant response rating
[18] = post-emergence, postemergence, visual rating, scale 0 (no effect) to 100 (complete control), read-out: Pigweed plant response rating
[19] = post-emergence, postemergence, visual rating, scale 0 (no effect) to 100 (complete control), read-out: Foxtail, Giant plant response rating
[20] = post-emergence, postemergence, visual rating, scale 0 (no effect) to 100 (complete control), read-out: Surinam Grass plant response rating
[21] = post-emergence, postemergence, visual rating, scale 0 (no effect) to 100 (complete control), read-out: Velvetleaf plant response rating
[22] = post-emergence, postemergence, visual rating, scale 0 (no effect) to 100 (complete control), read-out: Crabgrass, Large plant response rating
[23] = post-emergence, postemergence, visual rating, scale 0 (no effect) to 100 (complete control), read-out: Morningglory plant response rating

CCNC(=O)c1cccc(NC(=O)c2nn(C(C)(C)C)cc2Br)c1 [Compound 221, 4-bromo-1-(1,1-dimethylethyl)-N-[3-[(ethylamino)carbonyl]phenyl]-1H-pyrazole-3-carboxamide]
plant injury at 125 g/ha ([1]; post-emergence, postemergence, visual rating, scale 0 (no effect) to 100 (complete control), read-out: Corn plant response rating): 10%
plant injury at 500 g/ha ([1]; post-emergence, postemergence, 500 g ai/ha, visual rating, scale 0 (no effect) to 100 (complete control), read-out: Corn plant response rating): 10%
plant injury at 125 g/ha ([1]; pre-emergence, 0 = no effect, 100 = complete control, read-out: Corn plant response rating (0 to 100 scale)): 0%
Corn plant response rating (crop injury, 0 = no effect, 100 = complete kill) at 500 g/ha ([1]; pre-emergence, 500 g ai/ha, visual rating, 0 = no effect, 100 = complete control): 0%
plant injury at 125 g/ha ([2]; 125 g ai/ha): 0%
plant injury at 500 g/ha ([2]; 500 g ai/ha): 10%
plant injury at 1000 g/ha [3]: 20%
pest or weed control at 125 g/ha [4, 16]: 0%
pest or weed control at 500 g/ha [4, 16]: 20%
pest or weed control at 125 g/ha ([4]; pre-emergence, 0 = no effect, 100 = complete control, read-out: Cocklebur plant response rating (0 to 100 scale)): 0%
pest or weed control at 500 g/ha ([4]; pre-emergence, visual rating, 0 = no effect, 100 = complete control, read-out: Plant response rating, Cocklebur): 0%
pest or weed control at 125 g/ha ([5]; 125 g ai/ha): 0%
pest or weed control at 500 g/ha ([5]; 500 g ai/ha): 0%
pest or weed control at 125 g/ha [6, 17]: 0%
pest or weed control at 500 g/ha [6, 17]: 10%
pest or weed control at 125 g/ha ([6]; pre-emergence, 0 = no effect, 100 = complete control, read-out: Barnyardgrass plant response rating (0 to 100 scale)): 0%
pest or weed control at 500 g/ha ([6]; pre-emergence, visual rating, 0 = no effect, 100 = complete control, read-out: Plant response rating, Barnyardgrass): 90%
pest or weed control at 125 g/ha [7, 18]: 10%
pest or weed control at 500 g/ha [7, 18]: 20%
pest or weed control at 125 g/ha ([7]; pre-emergence, 0 = no effect, 100 = complete control, read-out: Pigweed plant response rating (0 to 100 scale)): 50%
pest or weed control at 500 g/ha ([7]; pre-emergence, visual rating, 0 = no effect, 100 = complete control, read-out: Plant response rating, Pigweed): 100%
pest or weed control at 125 g/ha [8, 19]: 10%
pest or weed control at 500 g/ha [8, 19]: 10%
pest or weed control at 125 g/ha ([8]; pre-emergence, 0 = no effect, 100 = complete control, read-out: Foxtail, Giant plant response rating (0 to 100 scale)): 0%
pest or weed control at 500 g/ha ([8]; pre-emergence, visual rating, 0 = no effect, 100 = complete control, read-out: Plant response rating, Foxtail, Giant): 70%
pest or weed control at 125 g/ha ([9]; 125 g ai/ha): 0%
pest or weed control at 500 g/ha ([9]; 500 g ai/ha): 10%
pest or weed control at 125 g/ha [10, 20]: 0%
pest or weed control at 500 g/ha [10, 20]: 10%
pest or weed control at 125 g/ha ([10]; pre-emergence, 0 = no effect, 100 = complete control, read-out: Surinam Grass plant response rating (0 to 100 scale)): 0%
pest or weed control at 500 g/ha ([10]; pre-emergence, visual rating, 0 = no effect, 100 = complete control, read-out: Plant response rating, Surinam Grass): 30%
pest or weed control at 125 g/ha [11, 21]: 0%
pest or weed control at 500 g/ha [11, 21]: 0%
pest or weed control at 125 g/ha ([11]; pre-emergence, 0 = no effect, 100 = complete control, read-out: Velvetleaf plant response rating (0 to 100 scale)): 0%
pest or weed control at 500 g/ha ([11]; pre-emergence, visual rating, 0 = no effect, 100 = complete control, read-out: Plant response rating, Velvetleaf): 50%
pest or weed control at 125 g/ha [12, 22]: 0%
pest or weed control at 500 g/ha [12, 22]: 10%
pest or weed control at 125 g/ha ([12]; pre-emergence, 0 = no effect, 100 = complete control, read-out: Crabgrass, Large plant response rating (0 to 100 scale)): 80%
pest or weed control at 500 g/ha ([12]; pre-emergence, visual rating, 0 = no effect, 100 = complete control, read-out: Plant response rating, Crabgrass, Large): 100%
pest or weed control at 1000 g/ha [13]: 50%
pest or weed control at 1000 g/ha [14]: 80%
pest or weed control at 125 g/ha [15, 23]: 0%
pest or weed control at 500 g/ha [15, 23]: 0%
pest or weed control at 125 g/ha ([15]; pre-emergence, 0 = no effect, 100 = complete control, read-out: Morningglory plant response rating (0 to 100 scale)): 0%
pest or weed control at 500 g/ha ([15]; pre-emergence, visual rating, 0 = no effect, 100 = complete control, read-out: Plant response rating, Morningglory): 0%
